Paper PMC11895359 (Alzheimer's Research & Therapy, 2025)
“And” between values parts separate entries of the source, which are not always exact repeats. Equal values may be shown once. Read-outs that look alike come from different tables or passages of the source. One block for each compound: values may come before it.

Tests used:
muscle regeneration = settings: aged mouse models; cited from earlier work
[1] = target: nicotinamide N-methyl transferase; settings: competes with nicotinamide; cited from earlier work
[2] = system: nicotinamide N-methyl transferase; settings: cited from earlier work
[3] = LC/MS measurement of CSF nicotinamide and metabolites in NEAT trial participants; settings: for Kp at 12 months / concentration at 12 months: 1500 mg; for Kp at 12 months: CSF methyl-nicotinamide as percent of plasma methyl-nicotinamide
Experimental: CSF samples were collected at 0 and 12 months.
The injection volume was 10 μL in triplicate.
(§1) We also measured the within-participant association between analytes. […] All bar graphs show mean and standard errors.

[4] = cited from earlier work
[5] = LC/MS measurement of plasma nicotinamide and metabolites in NEAT trial participants; settings: for concentration at 0 months: Plasma analyte concentration, this work baseline; for Plasma measure: obtained simultaneously with nicotinamide by LC/MS
Text: (§2) The NEAT trial participants were recruited at UCLA and UC Irvine and were required to meet eligibility criteria that included clinical criteria for mild cognitive impairment or mild dementia due to AD, confirmed by a CSF biomarker (CSF amyloid beta 42 (Aβ42) ≤ 200 pg/mL or a ratio of total tau to Aβ42 ≥ 0.39) [9]. […] Blood was collected from all participants at 0, 6, and 12 months after overnight fasting and plasma rapidly obtained. CSF samples were collected at 0 and 12 months. Plasma and CSF samples were stored at −80 °C until further processing. All samples were included in analysis, with an interval from last dose of drug or placebo ranging from 6 to 432 h.
(§3) Each calibration dilution contained IS at a constant concentration of 1 μM. IS was also added to each patient sample to a final concentration of 0.5 μM. All solutions and QC samples were stored at −20 °C. The lower limit of quantification for each analyte was determined by finding the lowest calibration curve concentration that could both be distinguished with 95% confidence from blank readings and have a signal-to-noise ratio greater than 8 to 1 [10].
(§4) Protein was precipitated by adding 160 μL of −20 °C 99.7% acetonitrile-0.3% formic acid to the IS-sample mix. Samples were centrifuged for 20 min at 4 °C at 17,000 g. 40 μL of the supernatant was then diluted fivefold with 200 μL of 0.3% formic acid in an autosampler well plate (Waters186002643). All plasma and CSF analytes were determined simultaneously for groups of 4–20 participants from the 46 participants without knowledge of their treatment assignment.
(§5) Samples were analyzed on a Waters Acquity UPLC Quattro Premier mass spectrometer in triple quadrupole electrospray positive (ESI +) mode with an Acquity CSH™ Fluoro-Phenyl (2.1 × 50 mm, 1.7 μm) column. For liquid chromatography separation, we modified the method of Chu et al. (2021). We used 0.3% formic acid in water as the mobile A phase, and 99.7% acetonitrile/0.3% formic acid as the mobile B phase. The injection volume was 10 μL in triplicate. The sample elution gradient was programmed as 0 – 0.5 min. in 100% A; 0.5–2.5 min, linear to 95% B; re-equilibrated from 2.5–4.5 min. in 100% A. The flow rate was 0.3 mL/min, and column temperature was 50 °C.
(§6) Microsoft Excel (Version 16.82, Microsoft, Redmond, WA, USA) was used for data management and statistical analysis. Treatment allocation was unblinded after all sample analyte levels were completed by mass spectrometry. We compared the randomized placebo and treatment groups for main analyte effects by two-tailed unpaired Student’s T Tests, with significance at p < 0.05, without adjustment for multiple comparisons in this exploratory analysis. […] We also measured the within-participant association between analytes. […] All bar graphs show mean and standard errors.

CSF pTau231 = experiment: Change in CSF pTau231 in NEAT trial participants; assay type: in vivo, human; set-up: PTAU231 Month 12, individual participant / PTAU231 change, individual participant: unit not given here
Text: as §1

total tau = experiment: Change in CSF total tau in NEAT trial participants; assay type: in vivo, human; settings: mean ± S.E.
Text: as §1

pTau181 = experiment: Change in CSF pTau181 in NEAT trial participants; assay type: in vivo, human; settings: CSF nicotinamide elevated, n = 6, 12 months, mean ± S.E.
Text: as §1

Aβ40 = experiment: Change in CSF Aβ40 in NEAT trial participants; assay type: in vivo, human; settings: mean ± S.E.
Text: as §1

Aβ42 = experiment: Change in CSF Aβ42 in NEAT trial participants; assay type: in vivo, human; settings: mean ± S.E.
Text: as §1

Aβ42/40 = experiment: Change in CSF Aβ42/40 ratio in NEAT trial participants; assay type: in vivo, human; settings: mean ± S.E.
Text: as §1

total tau/ Aβ42 = experiment: Change in CSF total tau/Aβ42 ratio in NEAT trial participants; assay type: in vivo, human; settings: mean ± S.E.
Text: as §1

[6] = system: mouse models of Alzheimer’s disease; settings: mouse models of AD; cited from earlier work
[7] = phase 2a trial, high-dose oral nicotinamide, early AD; cited from earlier work
[8] = set-up: method as in Galla et al. 16; settings: ref Galla et al. 16, cited from earlier work
Sirt1 = settings: cited from earlier work
[9] = in vivo
Text: as §2, §3, §4, §5, §6

[10] = obtained simultaneously with nicotinamide by LC/MS
[11] = n = 10, ± S.D., ref Clement et al. 14
[12] = n = 100, ± S.D., ref Seyedsadjadi et al. 15
[13] = CSF nicotinamide elevated, n = 6, 12 months
[14] = n = 659, ± S.D., ref Chu et al. 12
[15] = TX 1500mg, values below limit of quantification set to 0.1 uM, listed as 1-Methynicotinamide

Compound: C[n+]1cccc2c(N)cccc21 [5-amino-1-methylquinoline]
Muscle regeneration (muscle regeneration): improve muscle regeneration

Compound: COc1ccc(C(N)=O)cn1 [JBSNF-000088, 6-methyloxy-nicotinamide]
IC50 [1]: 1800 nM | Reduction of methyl-nicotinamide in mouse plasma [2]: 50% | Effect on body weight ([2]; mouse): reduced body weight

Compound: NC(=O)c1cccnc1 [Nicotinamide]
PTAU231 Month 12, individual participant (CSF pTau231; TX 1500mg): 34.3 and 98.8 and 66 and 31.3 and 12.2 and 14.6 and 15.1 and 68.8 and 21.2 and 10.9 and 29 and 49.5 and 6.6 and 52.5 and 20.1 and 65.3 and 41 and 6.2 and 37 | PTAU231 change, individual participant (CSF pTau231; TX 1500mg, Month 12 minus baseline): -12 and 24 and -20 and -24.5 and -2.9 and -10.4 and -17.7 and 29.5 and -11.6 and 3.1 and 7.6 and 1.5 and -0.3 and -15 and -25.2 and -8.5 and -1.5 and -5.3 | PTAU231 % change, individual participant (CSF pTau231; TX 1500mg, Month 12 vs baseline): -26% and 32% and -23% and -44% and -19% and -42% and -54% and 75% and -35% and 40% and 36% and 3% and -4% and -22% and -1% and -28% and -17% and -13% | Percent Change in pTau231 (CSF pTau231; all treated participants, 12 months): -9% | Decrease of pTau231 from baseline (CSF pTau231; six treated participants with elevated CSF nicotinamide, 12 months): 34% | Percent Change in pTau231 (CSF pTau231; treated, CSF nicotinamide elevated (six participants), 12 months): -34% | Increase of pTau231 from baseline (CSF pTau231; treated, CSF nicotinamide unelevated group, 12 months): 3% | Percent Change in pTau231 (CSF pTau231; treated, CSF nicotinamide unelevated, 12 months): 3% | Percent Change in pTau231 (CSF pTau231; treated, plasma nicotinamide elevated, 12 months): -4% | Percent Change in pTau231 (CSF pTau231; treated, plasma nicotinamide unelevated, 12 months): -15% | Change in total tau (total tau; [13]): -35 ± 84 pg/mL | Change in total tau (total tau; all treated, n = 19, 12 months): -8.6 ± 54 pg/mL | Change in pTau181 (pTau181): 1.1 ± 14 pg/mL | Change in Aβ40 (Aβ40; [13]): -1823 ± 1094 pg/mL | Change in Aβ40 (Aβ40; all treated, n = 19, 12 months): -2307 ± 593 pg/mL | Change in Aβ42 (Aβ42; [13]): -75 ± 44 pg/mL | Change in Aβ42 (Aβ42; all treated, n = 19, 12 months): -127 ± 38 pg/mL | Change in Aβ42/40 (Aβ42/40; [13]): −2.1 ± 4% | Change in Aβ42/40 (Aβ42/40; all treated, n = 19, 12 months): −3.7 ± 1.7% | Change in total tau/ Aβ42 (total tau/ Aβ42; [13]): 35 ± 15% | Change in total tau/ Aβ42 (total tau/ Aβ42; all treated, n = 19, 12 months): 41 ± 7% | Plasma analyte concentration [4, 11]: 38 ± 11 µM | Plasma analyte concentration ([4]; n = 54, ± S.D., ref Ibrahim et al. 13): 1.2 ± 0.14 µM | Plasma analyte concentration [4, 12]: 32 ± 11 µM | Plasma analyte concentration [4, 14]: 0.9 ± 0.02 µM | Cognitive function [6]: improved cognitive function | Safety and tolerability [7]: good safety and tolerability | Percent of treated participants with elevated plasma nicotinamide ([5]; 12 months, n = 14 of 23): 61% | concentration at 12 months ([5]; human, plasma, oral, 1500 mg, Mean plasma nicotinamide, drug elevated subgroup, treated, plasma nicotinamide > […], 12 months): 86 µM | concentration at 12 months ([5]; human, plasma, oral, 1500 mg, Mean plasma nicotinamide, drug unelevated subgroup, treated, plasma nicotinamide ≤ […], 12 months): 0.7 µM | concentration at 27 h ([5]; human, plasma, oral, 1500 mg, Plasma nicotinamide, one participant, treated, sample 27 h after last dose): 2 µM | concentration at 6 months ([5]; human, plasma, po, 1500 mg, Mean plasma nicotinamide, nicotinamide-treated participants, 1500 mg PO BID): 73 µM | concentration at 12 months ([5]; human, plasma, po, 1500 mg, Mean plasma nicotinamide, nicotinamide-treated participants, 1500 mg PO BID, 12 months): 52 µM

Compound: C[n+]1cccc(C(N)=O)c1 [methyl-nicotinamide, 1-methyl-nicotinamide]
Percent of treated participants with CSF methyl-nicotinamide seen ([3]; 12 months, n = 9 of 19): 47% | Ratio of elevated plasma methyl-nicotinamide to CSF methyl-nicotinamide ([3]; 125/3.4, 12 months): 37 | CSF 1-Methynicotinamide, Month 12, individual participant [3, 15]: 0.1 µM and 5.9 µM and 6.5 µM and 4.1 µM and 5.6 µM and 5.7 µM and 1.4 µM and 1.3 µM and 6.4 µM and 7.5 µM and 9.2 µM and 3.6 µM | CSF methyl-nicotinamide as percent of CSF nicotinamide ([3]; drug elevated subgroup, 3.4/57): 6% | Kp at 12 months ([3]; human, in vivo, drug elevated subgroup, 3.4 vs 125 μM): 0.03 | Kp at 12 months ([3]; human, in vivo, drug unelevated subgroup, 2.4 vs plasma 37 μM): 0.06 | concentration at 12 months ([3]; human, in vivo, CSF methyl-nicotinamide range in participants with elevated level, nicotinamide treated, 12 months): 3 to 10 µM | concentration at 12 months ([3]; human, in vivo, Mean CSF methyl-nicotinamide, CSF nicotinamide elevated subgroup, treated, 6 of 19 participants, 12 months): 3.4 µM | concentration at 12 months ([3]; human, in vivo, Mean CSF methyl-nicotinamide, CSF nicotinamide unelevated subgroup, treated, 12 months): 2.4 µM | concentration at 12 months ([3]; human, in vivo, Mean CSF methyl-nicotinamide, all nicotinamide-treated participants, 12 months): 3.1 µM | concentration at 0 months ([3]; human, in vivo, CSF analyte concentration, this work baseline, baseline before treatment, n = 47): ≤ 0.1 µM | Fold increase of mean CSF methyl-nicotinamide ([3]; treated, 12 months, vs 0.1 μM limit of quantification): at least 31 fold | Plasma analyte concentration [4, 11]: 0.05 ± 0.01 µM | Plasma analyte concentration ([4]; n = 10, ± S.D., ref Galla et al. 16): 0.185 ± 0.116 µM | Plasma analyte concentration [4, 12]: 0.033 ± 0.012 µM | Plasma analyte concentration [4, 14]: 0.1 ± 0.002 µM | CSF analyte concentration ([8]; n = 10, ± S.D.): 0.039 ± 0.025 µM | CSF methyl-nicotinamide ([8]; participants without AD): around 39 nM | Sirt1 binding and stabilization (Sirt1): binds to and stabilizes Sirt1 | Fold increase of plasma methyl-nicotinamide above baseline in 6 of 7 nicotinamide unelevated participants ([5]; 12 months): at least 127 fold | Plasma methyl-nicotinamide relative to mean plasma nicotinamide, drug elevated subgroup ([5]; 12 months, 125/86): 1.5 fold | Fold increase of plasma methyl-nicotinamide above baseline and placebo, drug elevated subgroup ([5]; 12 months, 125/<0.1): ≥ 1250 fold | Plasma 1-Methynicotinamide, Month 6, individual participant [5, 15]: 72.2 µM and 6.7 µM and 98.7 µM and 8.5 µM and 73.1 µM and 120.1 µM and 30.7 µM and 77.4 µM and 114.1 µM and 160.6 µM and 61.9 µM and 130.4 µM and 151.9 µM and 186.7 µM and 248.2 µM and 186.6 µM and 191.6 µM and 68.1 µM and 186.9 µM | Plasma 1-Methynicotinamide, Month 12, individual participant [5, 15]: 101.4 µM and 6.8 µM and 0.5 µM and 93.1 µM and 19.8 µM and 119.3 µM and 87.2 µM and 118.8 µM and 0.1 µM and 127.8 µM and 33.8 µM and 71.4 µM and 101.3 µM and 15.3 µM and 73.9 µM and 116.0 µM and 293.9 µM and 219.6 µM and 242.1 µM and 152.9 µM and 1.2 µM and 76.9 µM and 15.0 µM | Plasma analyte concentration, this work baseline ([5]; baseline before treatment, n = 47, ± S.D.): 0.14 ± 0.03 µM | concentration at 12 months ([5]; human, in vivo, 1500 mg BID, Mean plasma methyl-nicotinamide in 6 of 7 treated participants without measurable plasma nicotinamide, 12 months): 12.7 µM | concentration at 12 months ([5]; human, in vivo, 1500 mg, Mean plasma methyl-nicotinamide, plasma nicotinamide elevated subgroup, treated, 12 months): 125 µM | concentration at 12 months ([5]; human, in vivo, 1500 mg, Mean plasma methyl-nicotinamide, plasma nicotinamide unelevated subgroup, treated, 9 participants, 12 months): 37 µM | concentration at 12 months ([5]; human, in vivo, 1500 mg, Plasma methyl-nicotinamide range in participants with elevated level, nicotinamide treated, 12 months): 6 to 294 µM | concentration at 0 months ([5]; human, in vivo, baseline before treatment, n = 47, ± S.D.): 0.14 µM | concentration at 6 months ([5]; human, in vivo, po, 1500 mg, Mean plasma methyl-nicotinamide, nicotinamide-treated participants, 1500 mg PO BID): 114 µM | concentration at 12 months ([5]; human, in vivo, po, 1500 mg, Mean plasma methyl-nicotinamide, nicotinamide-treated participants, 1500 mg PO BID, 12 months): 91 µM | Fold increase of mean plasma methyl-nicotinamide ([5]; treated, 6 and 12 months): > 600 fold

Compound: O=C(O)c1cccnc1 [nicotinic acid]
CSF measure [3, 10]: below our limits of detection | Plasma measure [5]: below our limits of detection

More lines, main results first:

CSF measure [3, 10]: below our limits of detection | concentration at 0 months ([5]; human, plasma, baseline before treatment, n = 47, ± S.D.): < 1.2 µM | Plasma measure [5]: below our limits of detection | Plasma NAD+ (not measurable above) ([5]; this work): < 1.2 nM
Compound: NC(=O)c1ccc[n+]([C@@H]2O[C@H](COP(=O)([O-])OP(=O)(O)OC[C@H]3O[C@@H](n4cnc5c(N)ncnc54)[C@H](O)[C@@H]3O)[C@@H](O)[C@H]2O)c1 [NAD^+, Nicotinamide Adenine Dinucleotide]
Plasma analyte concentration [4, 11]: 0.008 ± 0.02 µM | Plasma analyte concentration [4, 12]: 0.023 ± 0.012 µM

CSF measure ([3]; in vivo): below our limits of detection | Plasma measure [9]: below our limits of detection
Compound: NC(=O)c1ccc[n+]([C@@H]2O[C@H](COP(=O)([O-])O)[C@@H](O)[C@H]2O)c1 [nicotinamide mononucleotide]
